According to US9120804B2, “8-substituted 2-amino-[1,2,4] triazolo [1, 5-A] pyrazines as Syk tryrosine kinase inhibitors and GCN2 serin kinase inhibitors” (Merck Patent GmbH, priority 2012, dated 2015):

biological target: T1, SYK (Homo sapiens, UniProt P43405); assay: SYK flash plate assay (enzyme assay); format: biochemical
T1 construct: 2.5 nM SYK, 400 nM Biotin-Aha-Aha-KEDPDYEWPSAKK
Method in brief: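 Radiometric Flashplate format: biotinylated peptide substrate (400 nM) and 33P-labelled ATP (10 μM) react with 2.5 nM enzyme for 1 hour at 30 °C in Hepes buffer, pH 7.5. After EDTA quench and washing, counts are taken; staurosporine defines non-specific signal, and IC50 values are derived.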

Q: With `CC1(C)C(=O)Nc2cc(Nc3nc4c(N5C[C@@H]6C[C@H]5CN6)nccn4n3)ccc21` [C89, 6-[(1S,4S)-8-(2,5-diaza-bicyclo[2.2.1]hept-2-yl)-[1,2,4]triazolo[1,5-a]pyrazin-2-ylamino]-3,3-dimethyl-1,3-dihydro-indol-2-one] as the compound, how does the IC50 read?
A: 300 to 3000 nM

Q: For `CC1(C)C(=O)Nc2cc(Nc3nc4c(-c5c[nH]c6ccccc56)nccn4n3)ccc21` [E76, 6-[8-(1H-indol-3-yl)-[1,2,4]triazolo[1,5-a]pyrazin-2-ylamino]-3,3-dimethyl-1,3-dihydro-indol-2-one], which IC50 is on record?
A: < 100 nM

Q: For `CC1(C)C(=O)Nc2cc(Nc3nc4c(N5CCC(C(=O)NC6CC6)C5)nccn4n3)ccc21` (stereo not drawn) [E4, 1-[2-(3,3-dimethyl-2-oxo-2,3-dihydro-1H-indol-6-ylamino)-[1,2,4]triazolo[1,5-a]pyrazin-8-yl]-pyrrolidine-3-carboxylic acid cyclopropylamide], which IC50 is on record?
A: 100 to 300 nM

Q: With `NS(=O)(=O)c1cccc(Nc2nc3c(-c4ccccc4-c4ccccc4)nccn3n2)c1` [C13, 3-(8-Biphenyl-2-yl-[1,2,4]triazolo[1,5-a]pyrazin-2-ylamino)-benzenesulfonamide] as the compound, how does the IC50 read?
A: 3000 to 50000 nM

Q: `COC1=CC2C=CN=C2C=C1Nc1nc2c(N3CCC4(CC3)CNC(=O)O4)nccn2n1` (stereo not drawn) [E61, 8-[2-(5-methoxy-3aH-indol-6-ylamino)-[1,2,4]triazolo[1,5-a]pyrazin-8-yl]-1-oxa-3,8-diaza-spiro[4.5]decan-2-one] was tested. Which IC50 did it give?
A: 3000 to 50000 nM

Q: `c1ccc(-c2ccccc2-c2nccn3nc(Nc4ccc5cn[nH]c5c4)nc23)cc1` [C11, (8-Biphenyl-2-yl-[1,2,4]triazolo[1,5-a]pyrazin-2-yl)-(1H-indazol-6-yl)-amine] was tested. Which IC50 did it give?
A: 300 to 3000 nM

Q: Which IC50 does the source give for `CC1(C)CCNc2cc(Nc3nc4c(N5CC[C@@]6(CNC(=O)C6)C5)nccn4n3)ccc21` [E101, (R)-7-[2-(4,4-dimethyl-1,2,3,4-tetrahydro-quinolin-7-ylamino)-[1,2,4]triazolo[1,5-a]pyrazin-8-yl]-2,7-diaza-spiro[4.4]nonan-3-one] here?
A: < 100 nM

Q: Which IC50 does the source give for `CN1[C@@H]2CC[C@H]1C[C@@H](Nc1nccn3nc(Nc4ccc5c(c4)NC(=O)C5(C)C)nc13)C2` [E78, 3,3-dimethyl-6-[8-((1R,3R,5S)-8-methyl-8-aza-bicyclo[3.2.1]oct-3-ylamino)-[1,2,4]triazolo[1,5-a]pyrazin-2-ylamino]-1,3-dihydro-indol-2-one] here?
A: 100 to 300 nM

Q: How did the IC50 turn out when `CC1(C)C(=O)Nc2cc(Nc3nc4c(-c5cnn(CCO)c5)nccn4n3)ccc21` [E145, 6-{8-[1-(2-hydroxy-ethyl)-1H-pyrazol-4-yl]-[1,2,4]triazolo[1,5-a]pyrazin-2-ylamino)-3,3-dimethyl-1,3-dihydro-indol-2-one] was run?
A: < 100 nM

Q: For `COC(=O)C1CCN(c2nccn3nc(Nc4ccc5c(c4)NC(=O)C5(C)C)nc23)C1` (stereo not drawn) [E2, 1-[2-(3,3-dimethyl-2-oxo-2,3-dihydro-1H-indol-6-ylamino)-[1,2,4]triazolo[1,5-a]pyrazin-8-yl]-pyrrolidine-3-carboxylic acid methyl ester], which IC50 is on record?
A: < 100 nM

Q: `COc1ccc(Nc2nc3c(-c4ccccc4-c4ccccc4)nccn3n2)cc1` [C1, (8-Biphenyl-2-yl-[1,2,4]triazolo[1,5-a]pyrazin-2-yl)-(4-methoxy-phenyl)-amine] was tested. Which IC50 did it give?
A: 3000 to 50000 nM

Q: How did the IC50 turn out when `CC1(C)CN(c2nccn3nc(Nc4ccc5c(c4)NC(=O)C5(C)C)nc23)c2cc(Cl)ccc21` [E100, 6-[8-(6-chloro-3,3-dimethyl-2,3-dihydro-indol-1-yl)-[1,2,4]triazolo[1,5-a]pyrazin-2-ylamino]-3,3-dimethyl-1,3-dihydro-indol-2-one] was run?
A: 300 to 3000 nM

Q: Which IC50 does the source give for `Cn1cc(-c2nccn3nc(Nc4ccc5c(c4)NC(=O)NC5(C)C)nc23)cn1` [E26, 4,4-dimethyl-7-[8-(1-methyl-1H-pyrazol-4-yl)-[1,2,4]triazolo[1,5-a]pyrazin-2-ylamino]-3,4-dihydro-1H-quinazolin-2-one] here?
A: < 100 nM

Q: `CC1(C)C(=O)Nc2cc(Nc3nc4c(-c5cnc6c(c5)CCCO6)nccn4n3)ccc21` [E116, 6-[8-(3,4-Dihydro-2H-pyrano[2,3-b]pyridin-6-yl)-[1,2,4]triazolo[1,5-a]pyrazin-2-ylamino]-3,3-dimethyl-1,3-dihydro-indol-2-one] was tested. Which IC50 did it give?
A: < 100 nM

Q: Which IC50 does the source give for `CC1(C)C(=O)Nc2cc(Nc3nc4c(N5CCC[C@@H]5C(N)=O)nccn4n3)ccc21` [E22, (R)-1-[2-(3,3-dimethyl-2-oxo-2,3-dihydro-1H-indol-6-ylamino)-[1,2,4]triazolo[1,5-a]pyrazin-8-yl]-pyrrolidine-2-carboxylic acid amide] here?
A: 300 to 3000 nM

Q: For `CC1(C)C(=O)Nc2cc(Nc3nc4c(N5CCc6ccc(C(N)=O)cc6C5)nccn4n3)ccc21` [E128, 2-[2-(3,3-dimethyl-2-oxo-2,3-dihydro-1H-indol-6-ylamino)-[1,2,4]triazolo[1,5-a]pyrazin-8-yl]-1,2,3,4-tetrahydro-isoquinoline-7-carboxylic acid amide], which IC50 is on record?
A: < 100 nM

Q: For `CC1(C)C(=O)Nc2cc(Nc3nc4c(N5CCC6(CNC(=O)CO6)C5)nccn4n3)ccc21` (stereo not drawn) [E120, 2-[2-(3,3-dimethyl-2-oxo-2,3-dihydro-1H-indol-6-ylamino)-[1,2,4]triazolo[1,5-a]pyrazin-8-yl]-6-oxa-2,9-diaza-spiro[4.5]decan-8-one], which IC50 is on record?
A: 300 to 3000 nM

Q: Which IC50 does the source give for `CCN(CC)c1nccn2nc(Nc3ccc4c(c3)NC(=O)C4(C)C)nc12` [E92, 6-(8-diethylamino-[1,2,4]triazolo[1,5-a]pyrazin-2-ylamino)-3,3-dimethyl-1,3-dihydro-indol-2-one] here?
A: < 100 nM

Q: With `CC1(C)CCNc2cc(Nc3nc4c(N5CC[C@]6(CNC(=O)C6)C5)nccn4n3)ccc21` [E86, (S)-7-[2-(4,4-dimethyl-1,2,3,4-tetrahydro-quinolin-7-ylamino)-[1,2,4]triazolo[1,5-a]pyrazin-8-yl]-2,7-diaza-spiro[4.4]nonan-3-one] as the compound, how does the IC50 read?
A: 100 to 300 nM

Q: How did the IC50 turn out when `CC1(C)C(=O)Nc2cc(Nc3nc4c(N[C@H]5C[C@@H](N)C5)nccn4n3)ccc21` [C98, 6-[8-(cis-3-amino-cyclobutylamino)-[1,2,4]triazolo[1,5-a]pyrazin-2-ylamino]-3,3-dimethyl-1,3-dihydro-indol-2-one] was run?
A: < 100 nM

Q: How did the IC50 turn out when `CC1(C)CC(=O)Nc2cc(Nc3nc4c(N5CC[C@@]6(CC(=O)NC6=O)C5)nccn4n3)ccc21` [E48, (R)-7-[2-(4,4-dimethyl-2-oxo-1,2,3,4-tetrahydro-quinolin-7-ylamino)-[1,2,4]triazolo[1,5-a]pyrazin-8-yl]-2,7-diaza-spiro[4.4]nonane-1,3-dione] was run?
A: < 100 nM

Q: With `CC1(C)CCCc2cc(Nc3nc4c(N5CCC6(CC5)CNC(=O)O6)nccn4n3)ccc21` [E54, 8-[2-(5,5-dimethyl-5,6,7,8-tetrahydro-naphthalen-2-ylamino)-[1,2,4]triazolo[1,5-a]pyrazin-8-yl]-1-oxa-3,8-diaza-spiro[4.5]decan-2-one] as the compound, how does the IC50 read?
A: < 100 nM

Q: `NS(=O)(=O)c1ccc(Nc2nc3c(-c4ccccc4-c4ccccc4)nccn3n2)cc1` [C15, 4-(8-Biphenyl-2-yl-[1,2,4]triazolo[1,5-a]pyrazin-2-ylamino)-benzenesulfonamide] was tested. Which IC50 did it give?
A: 3000 to 50000 nM

Q: `CN(C)CCN(C)c1nccn2nc(Nc3ccc4c(c3)NC(=O)C4(C)C)nc12` [E89, 6-{8-[(2-dimethylamino-ethyl)-methyl-amino]-[1,2,4]triazolo[1,5-a]pyrazin-2-ylamino}-3,3-dimethyl-1,3-dihydro-indol-2-one] was tested. Which IC50 did it give?
A: 300 to 3000 nM

Q: `CC1(C)C(=O)Nc2cc(Nc3nc4c(N5CCc6ccc(C#N)cc65)nccn4n3)ccc21` [E134, 1-[2-(3,3-dimethyl-2-oxo-2,3-dihydro-1H-indol-6-ylamino)-[1,2,4]triazolo[1,5-a]pyrazin-8-yl]-2,3-dihydro-1H-indole-6-carbonitrile] was tested. Which IC50 did it give?
A: < 100 nM

Q: Which IC50 does the source give for `CN(CCc1ccccn1)c1nccn2nc(Nc3ccc4c(c3)NC(=O)C4(C)C)nc12` [E90, 3,3-dimethyl-6-{8-[methyl-(2-pyridin-2-yl-ethyl)-amino]-[1,2,4]triazolo[1,5-a]pyrazin-2-ylamino}-1,3-dihydro-indol-2-one] here?
A: 300 to 3000 nM

Q: For `CC1(C)C(=O)Nc2cc(Nc3nc4c(-c5cnn(C6CCOCC6)c5)nccn4n3)ccc21` [E148, 3,3-dimethyl-6-{8-[1-(tetrahydro-pyran-4-yl)-1H-pyrazol-4-yl]-[1,2,4]triazolo[1,5-a]pyrazin-2-ylamino}-1,3-dihydro-indol-2-one], which IC50 is on record?
A: < 100 nM

Q: For `CC1(C)C(=O)Nc2cc(Nc3nc4c(NS(C)(=O)=O)nccn4n3)ccc21` [E104, N-[2-(3,3-dimethyl-2-oxo-2,3-dihydro-1H-indol-6-ylamino)-[1,2,4]triazolo[1,5-a]pyrazin-8-yl]-methanesulfonamide], which IC50 is on record?
A: 3000 to 50000 nM

Q: With `CC1(C)C(=O)Nc2cc(Nc3nc4c(NC5CN6CCC5CC6)nccn4n3)ccc21` (stereo not drawn) [E135, 6-[8-(1-aza-bicyclo[2.2.2]oct-3-ylamino)-[1,2,4]triazolo[1,5-a]pyrazin-2-ylamino]-3,3-dimethyl-1,3-dihydro-indol-2-one] as the compound, how does the IC50 read?
A: < 100 nM

Q: Which IC50 does the source give for `CC1(C)C(=O)Nc2cc(Nc3nc4c(N5C[C@@H](O)C[C@@H]5c5ccccc5)nccn4n3)ccc21` [E5, 6-[8-((2R,4S)-4-hydroxy-2-phenyl-pyrrolidin-1-yl)-[1,2,4]triazolo[1,5-a]pyrazin-2-ylamino]-3,3-dimethyl-1,3-dihydro-indol-2-one] here?
A: 100 to 300 nM

Q: Which IC50 does the source give for `Cn1cc(-c2nccn3nc(Nc4ccc(C(C)(C)C)cc4)nc23)cn1` [C62, (4-tert-butyl-phenyl)-[8-(1-methyl-1H-pyrazol-4-yl)-[1,2,4]triazolo[1,5-a]pyrazin-2-yl]-amine] here?
A: 100 to 300 nM

Q: With `CC1(C)C(=O)Nc2cc(Nc3nc4c(N5CCC6(CC5)CNC(=O)C6)nccn4n3)ccc21` [E63, 8-[2-(3,3-dimethyl-2-oxo-2,3-dihydro-1H-indol-6-ylamino)-[1,2,4]triazolo[1,5-a]pyrazin-8-yl]-2,8-diaza-spiro[4.5]decan-3-one] as the compound, how does the IC50 read?
A: < 100 nM

Q: For `CC1=NOCC2(CCN(c3nccn4nc(Nc5ccc6c(c5)NC(=O)C6(C)C)nc34)CC2)C1` [E58, 3,3-dimethyl-6-[8-(4-methyl-2-oxa-3,9-diaza-spiro[5.5]undec-3-en-9-yl)-[1,2,4]triazolo[1,5-a]pyrazin-2-ylamino]-1,3-dihydro-indol-2-one], which IC50 is on record?
A: 100 to 300 nM
